The NIST ThermoML archive (doi:10.1021/je034243t)
± gives the expanded uncertainty stated by the source.

Experiment: xn = mol fraction of the nth substance listed
Details: 291.15 K, Liquid, Vibrating tube method

O=C=O [carbon dioxide] + CCO
Details | mass density [kg/m3]
x1 = 0.184 | 819.5 ± 0.4
x1 = 0.227 | 826.4 ± 0.4
x1 = 0.304 | 836.8 ± 0.4
x1 = 0.455 | 855.1 ± 0.3
x1 = 0.728 | 865.9 ± 0.3
x1 = 0.838 | 856.5 ± 0.5
x1 = 0.951 | 828 ± 0.7
x1 = 0.983 | 811.3 ± 1.2
x1 = 0.996 | 800.6 ± 1.7
